The structures appear in SMILES notation. The source made the active and inactive calls. The calls are words filed in the database; no cut-off is given here. Peptide text beside a SMILES is read from it.

Data on two compounds can be found in ChEMBL document CHEMBL5113517, “Structure-Based Design, Optimization, and Evaluation of Potent Stabilized Peptide Inhibitors Disrupting MTDH and SND1 Interaction” (J Med Chem, 2022).

Data set [1] concerns MDA-MB-231. The data set can be described thus: Cell cycle arrest in human MDA-MB-231 cells assessed as accumulation at G2/M phase at 50 uM measured after 48 hrs by flow cytometric analysis flow cytometry analysis (reference value: 15.84 %). Type of data set: functional. Background: Flow cytometry measures light scatter and fluorescence of single cells or particles in a stream.

Data set [2] has as its system MDA-MB-231. In words: Cell cycle arrest in human MDA-MB-231 cells assessed as accumulation at G2/M phase at 100 uM measured after 48 hrs by flow cytometric analysis flow cytometry analysis (reference value: 16.38 %). Type of data set: functional.
The species entered for the next data set is Homo sapiens. In words: Inhibition of GST-tagged MTDH (364 ro 582 residues)/His-tagged SND1 (16 to 339 residues) (unknown origin) interaction measured after 12 hrs by pull down assay.
Data set [3] in a line: Stability of the compound in mouse serum measured after 3 to 7 days by HPLC analysis. It is filed as ADME, cell-free. Particulars: time 3-7 day.
The nature of data set [4]: Drug uptake in human MDA-MB-231 cells assessed as increase in cell penetration at 10 uM incubated for 12 hrs by flow cytometry method. It is filed as ADME, cell-based. Particulars: mda-mb-231, 12 h.
Data set [5] has as its system MDA-MB-231. In words: Inhibition of GST-tagged MTDH (364 ro 582 residues)/His-tagged SND1 (16 to 339 residues) interaction in human MDA-MB-231 cells measured after 12 hrs by co-immunoprecipitation assay. Type of data set: cell-based.
Data set [6] relates to MDA-MB-231. In words: Cell cycle arrest in human MDA-MB-231 cells assessed as accumulation at S phase at 100 uM measured after 48 hrs by flow cytometric analysis flow cytometry analysis (reference value: 25.81%). Type of data set: functional.
In data set [7] the test system is MDA-MB-231. The data set can be described thus: Cell cycle arrest in human MDA-MB-231 cells assessed as accumulation at G0/G1 phase at 50 uM measured after 48 hrs by flow cytometric analysis flow cytometry analysis (reference value: 58.28 %). It is filed as functional.
Data set [8] can be described thus: Toxicity in mouse RBC assessed as induction of hemolysis at 200 uM measured after 1 hr by microplate reader assay. Type of data set: cell-based. Particulars: erythrocyte.
For data set [9], the system named is MDA-MB-231. In words: Cytotoxicity against human MDA-MB-231 cells assessed as reduction in cell viability at 100 uM incubated for 72 hrs by CCK8 assay. It is filed as functional.
The subject of data set [10] is MDA-MB-231. In words: Cytotoxicity against human MDA-MB-231 cells assessed as reduction in cell viability at 6.25 to 200 uM incubated for 72 hrs by CCK8 assay. The conditions noted are these: dose 6.25-200 µM. Type of data set: functional, cell-based.
Data set [11] can be described thus: Drug uptake in human MDA-MB-231 cells assessed as increase in colocalization at 10 uM by confocal microscopy. It is filed as ADME, cell-based. The conditions noted are these: mda-mb-231, 10 µM.
Data set [12] in a line: Binding affinity to MTDH /His-SND1 (unknown origin) expressed in Escherichia coli BL21(DE3) assessed as dissociation constant by fluorescence polarization assay. More on the design: species or system Homo sapiens.
Data set [13] deals with MDA-MB-231. In words: Cell cycle arrest in human MDA-MB-231 cells assessed as accumulation at S phase at 50 uM measured after 48 hrs by flow cytometric analysis flow cytometry analysis (reference value: 25.88%). It is filed as functional.
The test system of data set [14] is MDA-MB-231. The data set can be described thus: Inhibition of cell migration in human MDA-MB-231 cells measured after 24 to 48 hrs by wound healing assay. Type of data set: functional, cell-based. Particulars: time 24-48 hrs.
The next data set has as its system MCF-10A. In words: Cytotoxicity against human MCF-10A cells assessed as reduction in cell viability at 6.25 to 200 uM incubated for 72 hrs by CCK8 assay. It is filed as toxicity, cell-based. The conditions noted are these: dose 6.25-200 µM. Background: Formazan colour is commonly taken as a measure of viable cells.
For data set [15], the system named is MDA-MB-231. The data set can be described thus: Cell cycle arrest in human MDA-MB-231 cells assessed as accumulation at G0/G1 phase at 100 uM measured after 48 hrs by propidium iodide based flow cytometry analysis (reference value: 57.81 %). It is filed as functional.
Data set [16] relates to MDA-MB-468. In words: Cytotoxicity against human MDA-MB-468 cells assessed as reduction in cell viability at 6.25 to 200 uM incubated for 72 hrs by CCK8 assay. It is filed as functional, cell-based. The conditions noted are these: dose 6.25-200 µM.
In data set [17] the test system is MDA-MB-468. In words: Cytotoxicity against human MDA-MB-468 cells assessed as reduction in cell viability incubated for 72 hrs by CCK8 assay. Type of data set: functional, cell-based.
Data set [18] concerns MDA-MB-231. In words: Cytotoxicity against human MDA-MB-231 cells assessed as reduction in cell viability incubated for 72 hrs by CCK8 assay. It is filed as functional, cell-based.
The test system of data set [19] is MDA-MB-231. The data set can be described thus: Antiproliferative activity against human MDA-MB-231 cells assessed as growth inhibition at 100 uM in presence of paclitaxel. Type of data set: functional, cell-based.

As usually defined, the Kd is the equilibrium constant for the complex coming apart. For `CC(C)[C@H](NC(=O)[C@H](Cc1c[nH]c2ccccc12)NC(=O)[C@H](CC(N)=O)NC(=O)CNC(=O)[C@H](Cc1c[nH]c2ccccc12)NC(=O)[C@H](CCC(=O)O)NC(=O)[C@H](CCC(=O)O)NC(=O)[C@@H]1CNC(=O)[C@@H](NC(=O)[C@H](Cc2c[nH]c3ccccc23)NC(=O)[C@@H](N)CC(=O)O)CC(=O)N[C@@H](C)C(=O)N2CCC[C@H]2C(=O)N1)C(=O)N[C@@H](CC(=O)O)C(=O)N[C@@H](CCC(=O)O)C(N)=O`, the Activity with MDA-MB-231 [1] is on record as 11.55%; with MDA-MB-231 [2] it was 10.12%; with MDA-MB-231 [6] it was 8.32%; with MDA-MB-231 [7], 69.94%; in [8], “Non-Toxic”; in the data set on MDA-MB-231 [9] it was 60%. Also, the Activity with MDA-MB-231 [13] is 18.5%; with MCF-10A, “Non-Toxic”; in the data set with MDA-MB-231 [15], 81.56%. Besides, the inhibition entry in the data set listed under Homo sapiens, with MDA-MB-231 [5] and in the data set with MDA-MB-231 [14] was “Active” each time. For the same compound, in data set [3], the Stability result is “Stable”. Further, the Drug uptake entry in [4] and in data set [11] was “Active” throughout. Further, the outcome with MDA-MB-231 [10], in the data set with MDA-MB-468 [16], with MDA-MB-468 [17], in the data set with MDA-MB-231 [18] and with MDA-MB-231 [19] was Active. For the same compound, in [12], the equilibrium dissociation constant (Kd) was 74.1 nM.

As to `CC(C)[C@H](NC(=O)[C@H](Cc1c[nH]c2ccccc12)NC(=O)[C@H](CC(N)=O)NC(=O)CNC(=O)[C@H](Cc1c[nH]c2ccccc12)NC(=O)[C@H](CCC(=O)O)NC(=O)[C@H](CCC(=O)O)NC(=O)[C@H](C)NC(=O)[C@@H]1CCCN1C(=O)[C@H](C)NC(=O)[C@H](CC(N)=O)NC(=O)[C@H](Cc1c[nH]c2ccccc12)NC(=O)[C@@H](N)CC(=O)O)C(=O)N[C@@H](CC(=O)O)C(=O)N[C@@H](CCC(=O)O)C(=O)O` (H-DWNAPAEEWGNWVDE-OH), the Activity with MDA-MB-231 [1] is 16.7%; with MDA-MB-231 [2] it was 15.55%; in the data set on MDA-MB-231 [6], 22.66%; in the data set on MDA-MB-231 [7], 60.42%; in the data set with MDA-MB-231 [13], 22.86%; with MDA-MB-231 [15] it was 61.79%. The Drug uptake entry in data set [4] and in [11] was “Active” in each case. Further, the Kd in data set [12] turned out to be 56.5 nM.
